Data set [1] relates to E. coli (sensitive). Nature of the data set: In vitro activity (geometric mean MIC, serial dilution). The class given is cell-based. Conditions: Escherichia coli, read-out: Geometric Mean MIC.
Data set [2] has as its system Miscellaneous (Salmonella, Shigella, Citrobacter). Nature of the data set: microbe, parasite or virus in culture. Conditions: read-out: Geometric Mean MIC.
Data set [3] has as its system Klebsiella sp. Nature of the data set: In vitro activity (geometric mean MIC, serial dilution). The settings on record: read-out: Geometric Mean MIC. The class given is cell-based.
In data set [4] the test system is Providencia sp. The data set is described as above. The data set is classed as cell-based. The settings on record: 5 strains, Mueller-Hinton agar, inoculum 10^4 dilution, MIC cutoff 200 mcg./ml., read-out: Geometric Mean MIC.
Data set [5] has as its system S. aureus (Methicillin-R). The description is as above. The data set is classed as cell-based. Conditions: Staphylococcus aureus; 15 strains; Mueller-Hinton agar, inoculum 10^4 dilution; MIC cutoff 200 mcg./ml.
Data set [6] deals with S. pyogenes. The description is as above. The class given is cell-based. The settings on record: Streptococcus pyogenes; 10 strains; Mueller-Hinton agar, inoculum 10^4 dilution; MIC cutoff 200 mcg./ml.
Data set [7] deals with Enterobacter (sensitive). The data set is described as above. The class given is cell-based. Conditions: 3 strains, Mueller-Hinton agar, inoculum 10^4 dilution, MIC cutoff 200 mcg./ml., read-out: Geometric Mean MIC.
In data set [8] the test system is E. coli (Penicillinase +). The description is as above. The data set is classed as cell-based. Conditions: Escherichia coli; 7 strains; Mueller-Hinton agar, inoculum 10^4 dilution; MIC cutoff 200 mcg./ml.; read-out: Geometric Mean MIC.
Data set [9] deals with Proteus (indole +, cephalosporinase +). The description is as above. The class given is cell-based. The settings on record: 5 strains; Mueller-Hinton agar, inoculum 10^4 dilution; MIC cutoff 200 mcg./ml.; read-out: Geometric Mean MIC.
The subject of data set [10] is Proteus (indole-). The data set is described as above. The class given is cell-based. The settings on record: read-out: Geometric Mean MIC.
Data set [11] has as its system D. pneumoniae. Described as above. Conditions: Streptococcus pneumoniae; 9 strains; Mueller-Hinton agar, inoculum 10^4 dilution; MIC cutoff 200 mcg./ml. The data set is classed as cell-based.
In data set [12] the test system is S. aureus (sensitive). The description is as above. The class given is cell-based. Conditions: Staphylococcus aureus, read-out: Geometric Mean MIC.
In data set [13] the test system is rabbits. Nature of the data set: Preliminary nephrotoxicity study. The data set is classed as in vivo. Conditions: two rabbits, 100 mg./kg. intravenously. The protocol: A preliminary nephrotoxicity study was carried out by administration of the test compound to a group of two rabbits at 100 mg./kg. intravenously.
Data set [14] has as its system S. aureus penicillinase+). As to the kind of experiment: In vitro activity (geometric mean MIC, serial dilution). The settings on record: Staphylococcus aureus, read-out: Geometric Mean MIC. The class given is cell-based.
In data set [15] the test system is S. aureus Smith. As to the kind of experiment: In vivo activity (Mice, sc). The settings on record: several determinations listed; for ED50: Staphylococcus aureus, read-out: PD50. The text has this: (§1) |In vivo Activity of BB-[…] and Related Compounds (Mice, sc) | (PD50 (mgm./kg.)
Data set [16] relates to E. coli Juhl. Nature of the data set: In vivo activity (Mice, sc). The settings on record: several determinations listed; for ED50: Escherichia coli, read-out: PD50.
Source text: as §1

In data set [17] the test system is S. marcescens. As to the kind of experiment: In vitro activity (geometric mean MIC, serial dilution). The class given is cell-based. The settings on record: Serratia marcescens; 16 strains; Mueller-Hinton agar, inoculum 10^4 dilution; MIC cutoff 200 mcg./ml.; read-out: Geometric Mean MIC.
For data set [18], the system named is Proteus (indole +). Described as above. Conditions: read-out: Geometric Mean MIC. The data set is classed as cell-based.
Data set [19] concerns Enterobacter (Cephalosporinase +). The data set is described as above. The data set is classed as cell-based. The settings on record: 7 strains, Mueller-Hinton agar, inoculum 10^4 dilution, MIC cutoff 200 mcg./ml.
The test system of data set [20] is 51 gram-positive and 96 gram-negative bacteria. Nature of the data set: In vitro activity against 147 test organisms (overall comparison). The data set is classed as cell-based. The settings on record: compared with BB-S483 and BB-S469, respectively. The protocol:
The MIC's were determined by the serial dilution method using Mueller-Hinton agar against 51 gram-positive and 96 gram-negative bacteria. The 147 test organisms were classified into 16 groups according to the genera and the types of antibiotic resistance, 5 groups for gram-positive and 11 for gram-negative bacteria.

The mark [21] stands for this setting: 13 strains, Mueller-Hinton agar, inoculum 10^4 dilution, MIC cutoff 200 mcg./ml.
Where [22] appears, read: 12 strains, Mueller-Hinton agar, inoculum 10^4 dilution, MIC cutoff 200 mcg./ml.

Values after ≈ are worked out from the molar mass of the structure shown. Values joined by “and” are separate entries in the source; they are usually repeats but may differ in a detail not shown here. Equal entries are not always repeated. Where two headings read alike, the source gives them in different places.

Turning to `NCc1ccccc1CC(=O)N[C@@H]1C(=O)N2C(C(=O)O)=C(CSc3ccc4nn(CC(=O)O)c(=O)n4n3)CS[C@H]12` [BB-S469], the MIC in [1] was found to be 0.3 µg/mL (≈ 0.512 µM); in data set [2], 0.7 µg/mL (≈ 1.2 µM); in data set [3], 0.9 µg/mL (≈ 1.54 µM); in [4] it was 4.2 µg/mL (≈ 7.17 µM); in data set [5] it was 30 µg/mL (≈ 51.2 µM); in data set [6], 0.05 µg/mL (≈ 0.0854 µM). Further, the MIC in data set [7] is 1 µg/mL (≈ 1.71 µM); in data set [8], 11 µg/mL (≈ 18.8 µM); in data set [9], 11 µg/mL (≈ 18.8 µM); in [10] (6 strains, Mueller-Hinton agar, inoculum 10^4 dilution, MIC cutoff 200 mcg./ml.) it was 0.6 µg/mL (≈ 1.02 µM); in data set [11] it was 0.03 µg/mL (≈ 0.0512 µM); in [12] it was 0.4 µg/mL (≈ 0.683 µM). The MIC in [14] was found to be 1.2 µg/mL (≈ 2.05 µM); in data set [17], 130 µg/mL (≈ 222 µM); in data set [18], 0.5 µg/mL (≈ 0.854 µM); in data set [19] it was 4.7 µg/mL (≈ 8.03 µM). Further, the nephrotoxic potential entry in data set [13] was “little nephrotoxic potential”. The ED50 in data set [15] and in [16] was 0.19 mg/kg throughout. Also, the PD50 is 0.16 mgm./kg. and 0.29 mgm./kg. and 0.2 mgm./kg in data set [15]; 0.24 mgm./kg. and 0.15 mgm./kg in data set [16].

On to `CNCc1ccsc1CC(=O)N[C@@H]1C(=O)N2C(C(=O)O)=C(CSc3ccc4nn(CC(=O)O)c(=O)n4n3)CS[C@H]12` [BB-S472, 7-(3-Methylaminomethyl-2-thienylacetamido)-3-(2-carboxymethyl-2,3-dihydro-s-triazolo[4,3-b]pyridazin-3-on-6-ylthiomethyl)-3-cephem-4-carboxylic Acid], for which the MIC in data set [1] (setting [21]) came to 0.2 µg/mL (≈ 0.33 µM); in data set [2], 0.4 µg/mL (≈ 0.66 µM); in [3] (setting [22]), 0.8 µg/mL (≈ 1.32 µM); in data set [4], 4.8 µg/mL (≈ 7.92 µM); in [5], 58 µg/mL (≈ 95.8 µM); in data set [6], 0.05 µg/mL (≈ 0.0826 µM). The MIC in data set [7] worked out at 1.3 µg/mL (≈ 2.15 µM); in data set [8] it was 15 µg/mL (≈ 24.8 µM); in data set [9] it was 8.3 µg/mL (≈ 13.7 µM); in data set [10], 0.3 µg/mL (≈ 0.495 µM); in data set [11], 0.05 µg/mL (≈ 0.0826 µM); in data set [12], 0.4 µg/mL (≈ 0.66 µM). Moreover, the MIC in [14] amounted to 0.9 µg/mL (≈ 1.49 µM); in data set [17], 200 µg/mL (≈ 330 µM); in [18], 0.3 µg/mL (≈ 0.495 µM); in [19], 3.2 µg/mL (≈ 5.28 µM). Further, the “overall in vitro activity vs. non-N-methylated analogs” value in data set [20] is on record as “better overall activity than their non-N-methylated analogs”. The results for the ED50 in data set [15] and in data set [16] were 0.12 mg/kg and 0.19 mg/kg, respectively.

Regarding `NCc1ccsc1CC(=O)N[C@@H]1C(=O)N2C(C(=O)O)=C(CSc3ccc4nn(CC(=O)O)c(=O)n4n3)CS[C@H]12` [BB-S483, 7-(3-Aminomethyl-2-thienylacetamido)-3-(2-carboxymethyl-2,3-dihydro-s-triazolo[4,3-b]pyridazin-3-on-6-ylthiomethyl)-3-cephem-4-carboxylic Acid], the MIC in data set [1] turned out to be 0.3 µg/mL (≈ 0.507 µM); in data set [2], 0.9 µg/mL (≈ 1.52 µM); in data set [3] (setting [22]), 1.1 µg/mL (≈ 1.86 µM); in [4], 2.1 µg/mL (≈ 3.55 µM); in [5], 48 µg/mL (≈ 81.1 µM); in data set [6] it was 0.08 µg/mL (≈ 0.135 µM). The MIC in [7] was found to be 1.3 µg/mL (≈ 2.2 µM); in data set [8], 21 µg/mL (≈ 35.5 µM); in [9], 17 µg/mL (≈ 28.7 µM); in data set [10], 0.7 µg/mL (≈ 1.18 µM); in data set [11] it was 0.04 µg/mL (≈ 0.0676 µM); in data set [12], 0.3 µg/mL (≈ 0.507 µM). Also, the MIC came out at 1.1 µg/mL (≈ 1.86 µM) in data set [14] (setting [21]), 81 µg/mL (≈ 137 µM) in data set [17], 0.4 µg/mL (≈ 0.676 µM) in data set [18] and 5.2 µg/mL (≈ 8.79 µM) in [19]. The ED50 in data set [15] turned out to be 0.34 mg/kg; in data set [16] it was 0.15 mg/kg.
